According to patent publication US12534501B2, “Targeting deregulated Wnt signaling in cancer using stabilized alpha-helices of BCL-9” (Dana-Farber Cancer Institute, Inc., priority 2011, dated 2026):
Numbered stars: 1 amine (or outer) side, 2 acyl side, 3 side chain; on linkers, the order of the positions; unused ones are H or OH. Bridge positions count the residues as written; N and C are the ends. Square brackets hold non-standard residues; d marks the D form. Peptide text beside a SMILES is read from it. ξ: configuration not given here. ξαMeNle(6-ylidene) = CC(CCCC=[*:3])(N[*:1])C(=O)[*:2]; Nle = CCCC[C@H](N)C(=O)O

What was measured:
[1] = test system: GFP-positive Colo320 cells in NOD/SCID mice; test: Colo320 intraperitoneal xenograft model; type: in vivo
Experimental: To explore the therapeutic potential of targeting the BCL9/β-catenin interaction, the capacity of SAH-BCL9B to suppress tumor growth was examined in vivo. GFP-expressing Colo320 cells (1×10^6) were injected into the peritoneum of sublethally irradiated NOD/SCID mice. Two days after cellular injection, mouse cohorts (n=6) were treated with vehicle (2.5% DMSO in D5W), SAH-BCL9B, or SAH-BCL9B(R359E) peptides (20 mg/kg) for a total of 6 doses administered intraperitoneally every other day. On day 40 of the experiment, mice were sacrificed and evaluated for tumor burden and metastasis by whole body imaging and histologic examination of harvested GFP-positive tissues. […] Importantly, no histologic changes in normal murine tissues were observed across the treatment groups upon necropsy.
GFP-positive Colo320 cells were generated as previously reported (Mani, M. et al. Cancer Res 69, 7577-86 (2009)). Cells were pelleted, resuspended in sterile 1x PBS and injected intraperitoneally (1×10^6 cells/mouse) into 5-week-old sublethally irradiated NOD.CB17-PrkdcSCID/J mice (Jackson Laboratory) (n=6 per cohort). Two days after cellular inoculation, mice were treated by intraperitoneal injection with vehicle (2.5% DMSO in D5W) or SAH-BCL9 peptides (20 mg/kg) on alternate days for a total of 6 doses. Forty days after tumor cell injection, the mice were euthanized and GFP-positive tumor visualized using an ImageQuant LAS-4000 (GE Healthcare). Complete necropsies were performed for each experimental animal and livers were sectioned in their entirety at 5 mm intervals for quantitation of tumor metastases. Tissues were subjected to H&E staining and immunohistochemical analysis using anti-CD34 and anti-CD44 antibodies.

[2] = target: T1, β-catenin-BCL9/B9L complexes (Homo sapiens, UniProt P35222); test: Anti-BCL9 and B9L co-immunoprecipitation (disruption of native complexes); type: cell-based; settings: cellular treatment
T1 construct: SAH-BCL9B disrupts native β-catenin-BCL9/B9L complexes; endogenous in cells; Colo320 or MM1S by context
T1 sequence (P35222 2-781): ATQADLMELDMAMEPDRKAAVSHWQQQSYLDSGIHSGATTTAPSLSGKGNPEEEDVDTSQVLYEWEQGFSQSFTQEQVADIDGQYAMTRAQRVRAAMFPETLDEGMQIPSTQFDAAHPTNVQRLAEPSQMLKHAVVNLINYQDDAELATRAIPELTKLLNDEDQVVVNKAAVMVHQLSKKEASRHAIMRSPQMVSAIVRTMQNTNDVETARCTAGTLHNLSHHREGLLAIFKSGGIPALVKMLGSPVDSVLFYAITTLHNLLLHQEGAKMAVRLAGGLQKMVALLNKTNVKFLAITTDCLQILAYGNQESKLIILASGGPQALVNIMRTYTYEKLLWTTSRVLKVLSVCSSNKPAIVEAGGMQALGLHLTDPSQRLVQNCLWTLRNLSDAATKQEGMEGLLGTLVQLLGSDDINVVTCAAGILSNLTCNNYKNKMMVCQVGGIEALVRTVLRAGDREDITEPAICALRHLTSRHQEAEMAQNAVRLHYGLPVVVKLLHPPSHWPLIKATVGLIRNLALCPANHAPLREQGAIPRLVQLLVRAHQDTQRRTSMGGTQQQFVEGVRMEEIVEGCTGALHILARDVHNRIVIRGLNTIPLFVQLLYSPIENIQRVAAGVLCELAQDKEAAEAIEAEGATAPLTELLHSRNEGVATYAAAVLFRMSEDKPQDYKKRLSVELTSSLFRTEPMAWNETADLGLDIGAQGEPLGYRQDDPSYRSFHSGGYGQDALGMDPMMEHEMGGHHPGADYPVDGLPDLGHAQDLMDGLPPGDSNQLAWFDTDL
Source text: Western blotting, performed as described (Sukhdeo, K. et al. Proc Natl Acad Sci USA 104, 7516-21 (2007)), employed the following primary antibodies: BCL9 (6109) (Mani, M. et al. Cancer Res 69, 7577-86 (2009)), BCL9 (ab37305, Abcam), B9L (AF4967, R&D Systems), β-catenin (CAT5-H10, Zymed), FITC (ab19224, Abcam), Actin-HRP (C-11, Santa Cruz), Caspase3 (#9662, Cell Signaling), IκBα (#9242, Cell signaling), PARP (#9542, Cell Signaling), E-cadherin (#3195, Cell Signaling), and Lamin B (sc-6217, Santa Cruz). Horseradish peroxidase conjugated secondary antibodies were purchased from Santa Cruz and SouthernBiotech. Co-immunoprecipitation was performed as described (Walensky, L. D. et al. Science 305, 1466-70 (2004)). Briefly, cells were lysed in 50 mM Tris, 150 mM NaCl, and 1% CHAPS buffer containing protease and phosphatase inhibitors. Lysates were precleared with Protein A/G PLUS-agarose beads (Santa Cruz Biotechnologies) for 3 hours followed by overnight incubation at 4° C. with the respective antibodies. Agarose A/G beads were then added for 4 h, pelleted, and washed as described (Walensky, L. D. et al. Science 305, 1466-70 (2004)). See results in FIG. 1D, FIG. 1H, FIG. 2A, FIG. 8.

[3] = 20 mg/kg i.p. every other day, 6 doses, day 40

Molecule | metastatic tumor nodules in the liver [1, 3] | tumor burden (overall tissue fluorescence, whole body imaging) [1, 3] | capillary CD34 immunoreactivity ([1]; 20 mg/kg i.p., 6 doses) | number of intratumoral blood vessels ([1]; 20 mg/kg i.p., 6 doses) | tumor cell CD44 immunoreactivity ([1]; 20 mg/kg i.p., 6 doses) | TUNEL positivity in colonic tumor tissue ([1]; NOD/SCID mice bearing intraperitoneal Colo320 cells) | disruption of the association of β-catenin with BCL9 and B9L [2]
CCCC[C@H](NC(=O)[C@H](CCCNC(=N)N)NC(=O)[C@H](CCC(N)=O)NC(=O)[C@@H](NC(=O)C1(C)CCCC=CCCCC(C)(NC(=O)[C@H](CC(C)C)NC(=O)[C@H](CO)NC(=O)[C@H](CCCNC(=N)N)NC(=O)[C@H](CCC(=O)O)NC(=O)[C@H](CCCNC(=N)N)NC(=O)[C@H](Cc2c[nH]cn2)NC(=O)[C@H](CCC(=O)O)NC(=O)[C@H](CC(C)C)NC(=O)[C@H](CCC(N)=O)NC(=O)[C@H](CCC(=O)O)NC(=O)[C@H](CCC(N)=O)NC(=O)[C@H](CO)NC(=O)[C@H](CC(C)C)NC(C)=O)C(=O)N[C@@H]([C@@H](C)O)C(=O)N[C@@H](CC(C)C)C(=O)N[C@@H](CCCNC(=N)N)C(=O)N1)[C@@H](C)CC)C(=O)N[C@@H](CC(C)C)C(=O)N[C@@H](Cc1ccccc1)C(N)=O (some centres unmarked) [SAH-BCL9B] (Ac-LSQEQLEHRERSL[ξαMeNle(6-ylidene)]TLR[ξαMeNle(6-ylidene)]IQR[Nle]LF-NH2; staple 14-18) | overall reduction of metastatic tumor nodules | markedly reduced | less intense capillary CD34 immunoreactivity | reduction in the number of intratumoral blood vessels | decreased tumor cell CD44 immunoreactivity | notably increased TUNEL positivity | dose-responsively disrupted
SAH-BCL9B(R359E): SEQ ID NO: 7: LSQEQLEHEERSLXTLRXIQRBLF; reverse polarity point mutant, negative control of SAH-BCL9B |  |  |  |  |  |  | no effect
